Article PMC12310023 (PLOS Neglected Tropical Diseases, 2025)
Where two headings read alike, the source gives them in different places.

Key:
NLuc C. parvum = NLuc C. parvum growth in HCT-8 cells (UW); assay type: cell-based; settings: Cryptosporidium parvum
[1] = tested on: panel of 71 common liability targets; assay: Cerep panel of 71 common liability targets; assay type: binding; settings: read-out: IC50s, all Cerep targets except AT2
[2] = tested on: C. parvum Bunch Grass Farms isolate; assay: Calibr high-content imaging Cryptosporidium panel; assay type: cell-based, Cryptosporidium parvum; settings: Cryptosporidium parvum
CYP2B6 = biological target: T1, CYP2B6 (Homo sapiens, UniProt P20813); assay: in vitro; settings: recombinant CYP2B6 supersomes
T1 sequence (P20813 1-491): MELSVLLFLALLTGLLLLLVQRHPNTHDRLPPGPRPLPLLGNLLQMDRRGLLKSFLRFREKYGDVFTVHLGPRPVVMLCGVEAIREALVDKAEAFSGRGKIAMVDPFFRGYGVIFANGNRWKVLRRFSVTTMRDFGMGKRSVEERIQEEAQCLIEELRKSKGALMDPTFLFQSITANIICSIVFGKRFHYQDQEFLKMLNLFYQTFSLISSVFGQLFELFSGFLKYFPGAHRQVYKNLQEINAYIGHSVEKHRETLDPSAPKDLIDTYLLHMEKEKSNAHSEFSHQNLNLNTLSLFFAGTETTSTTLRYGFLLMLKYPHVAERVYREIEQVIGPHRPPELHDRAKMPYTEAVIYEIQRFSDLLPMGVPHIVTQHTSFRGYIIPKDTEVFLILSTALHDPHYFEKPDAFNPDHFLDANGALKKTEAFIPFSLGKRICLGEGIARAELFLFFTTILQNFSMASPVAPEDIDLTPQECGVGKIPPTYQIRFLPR

[3] = Liver microsome stability; settings: human, pooled liver microsomes
[4] = Monkey PK (r15 PO 1, r16 IV 1 mg/kg); assay type: in vivo
CYP2C9 = CYP2C9 (Homo sapiens, UniProt P11712); assay: in vitro; settings: recombinant CYP2C9 supersomes
CYP2C9, sequence (P11712 whole entry): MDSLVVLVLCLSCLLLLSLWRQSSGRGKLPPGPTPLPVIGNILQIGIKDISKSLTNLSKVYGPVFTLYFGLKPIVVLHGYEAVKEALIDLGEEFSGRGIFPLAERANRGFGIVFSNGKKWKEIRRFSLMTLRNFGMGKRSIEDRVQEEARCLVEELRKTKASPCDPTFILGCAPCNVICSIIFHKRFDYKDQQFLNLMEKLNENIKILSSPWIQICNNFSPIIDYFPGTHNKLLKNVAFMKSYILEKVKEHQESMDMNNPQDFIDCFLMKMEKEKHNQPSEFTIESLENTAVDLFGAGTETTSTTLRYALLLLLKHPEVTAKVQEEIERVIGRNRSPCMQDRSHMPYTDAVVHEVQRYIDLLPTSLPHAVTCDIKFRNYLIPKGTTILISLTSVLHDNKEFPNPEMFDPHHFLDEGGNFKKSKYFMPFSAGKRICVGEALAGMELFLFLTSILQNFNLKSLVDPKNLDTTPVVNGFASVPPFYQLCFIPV

Cav1.2 (L-type) = Cav1.2 (L-type) (Homo sapiens, UniProt Q13936); assay: Bioprofiling panel functional assay; assay type: cell-based; settings: 6 pt dilutions starting at 10 μM; read-out: IC50, antagonist readout
Cav1.2 (L-type), sequence (Q13936 whole entry): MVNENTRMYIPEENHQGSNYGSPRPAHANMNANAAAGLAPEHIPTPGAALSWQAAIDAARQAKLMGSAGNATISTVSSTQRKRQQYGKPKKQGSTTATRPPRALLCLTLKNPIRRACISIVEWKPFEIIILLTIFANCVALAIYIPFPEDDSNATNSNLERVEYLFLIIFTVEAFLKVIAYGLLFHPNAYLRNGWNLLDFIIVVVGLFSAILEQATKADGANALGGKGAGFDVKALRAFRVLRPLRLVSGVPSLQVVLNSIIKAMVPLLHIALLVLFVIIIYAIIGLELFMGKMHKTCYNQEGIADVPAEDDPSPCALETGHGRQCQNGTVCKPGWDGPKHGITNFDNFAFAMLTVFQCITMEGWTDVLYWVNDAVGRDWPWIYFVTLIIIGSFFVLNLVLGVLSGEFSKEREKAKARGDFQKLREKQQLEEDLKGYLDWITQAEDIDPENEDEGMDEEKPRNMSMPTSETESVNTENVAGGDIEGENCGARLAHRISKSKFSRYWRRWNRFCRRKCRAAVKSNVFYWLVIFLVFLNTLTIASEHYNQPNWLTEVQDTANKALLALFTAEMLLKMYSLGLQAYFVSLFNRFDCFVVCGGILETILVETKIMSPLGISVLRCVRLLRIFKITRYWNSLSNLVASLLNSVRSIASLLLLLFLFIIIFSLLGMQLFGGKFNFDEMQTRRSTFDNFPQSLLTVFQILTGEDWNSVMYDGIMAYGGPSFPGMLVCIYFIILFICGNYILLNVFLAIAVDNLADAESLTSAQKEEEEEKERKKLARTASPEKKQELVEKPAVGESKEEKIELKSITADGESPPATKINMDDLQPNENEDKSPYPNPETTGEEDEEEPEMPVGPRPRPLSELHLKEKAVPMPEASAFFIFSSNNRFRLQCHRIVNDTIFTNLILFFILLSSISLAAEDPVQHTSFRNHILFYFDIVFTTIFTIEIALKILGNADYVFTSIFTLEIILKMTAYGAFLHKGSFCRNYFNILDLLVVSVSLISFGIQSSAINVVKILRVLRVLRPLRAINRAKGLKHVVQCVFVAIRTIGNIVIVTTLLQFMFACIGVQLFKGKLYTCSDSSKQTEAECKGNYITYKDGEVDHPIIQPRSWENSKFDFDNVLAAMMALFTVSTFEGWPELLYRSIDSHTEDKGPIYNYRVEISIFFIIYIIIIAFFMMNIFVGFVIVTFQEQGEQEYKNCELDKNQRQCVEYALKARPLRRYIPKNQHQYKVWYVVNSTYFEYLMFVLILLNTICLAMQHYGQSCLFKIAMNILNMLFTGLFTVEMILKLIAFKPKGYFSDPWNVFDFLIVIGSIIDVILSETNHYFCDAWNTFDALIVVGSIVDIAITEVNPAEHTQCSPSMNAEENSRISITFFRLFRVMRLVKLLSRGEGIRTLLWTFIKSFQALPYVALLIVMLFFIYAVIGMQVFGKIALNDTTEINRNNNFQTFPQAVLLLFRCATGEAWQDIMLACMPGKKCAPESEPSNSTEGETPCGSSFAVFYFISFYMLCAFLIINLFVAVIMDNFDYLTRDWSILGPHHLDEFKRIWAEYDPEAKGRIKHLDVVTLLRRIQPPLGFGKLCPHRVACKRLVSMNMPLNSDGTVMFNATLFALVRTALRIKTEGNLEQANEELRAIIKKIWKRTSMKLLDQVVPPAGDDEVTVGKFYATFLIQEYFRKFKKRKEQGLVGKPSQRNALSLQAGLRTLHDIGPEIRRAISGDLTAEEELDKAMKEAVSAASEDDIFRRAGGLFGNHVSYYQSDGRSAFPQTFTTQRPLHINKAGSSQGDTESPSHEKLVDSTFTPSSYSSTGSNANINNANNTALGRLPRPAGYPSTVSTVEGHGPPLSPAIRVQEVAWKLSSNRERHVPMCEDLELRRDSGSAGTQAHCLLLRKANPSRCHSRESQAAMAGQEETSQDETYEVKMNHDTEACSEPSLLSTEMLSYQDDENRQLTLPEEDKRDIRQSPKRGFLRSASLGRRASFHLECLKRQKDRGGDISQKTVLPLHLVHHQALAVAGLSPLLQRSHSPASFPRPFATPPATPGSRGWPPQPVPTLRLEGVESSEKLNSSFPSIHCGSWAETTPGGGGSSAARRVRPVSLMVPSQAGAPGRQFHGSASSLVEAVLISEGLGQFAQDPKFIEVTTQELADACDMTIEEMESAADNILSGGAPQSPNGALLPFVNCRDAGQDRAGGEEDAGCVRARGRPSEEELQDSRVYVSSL
Cav1.2 (L-type), sequence (Q08289 whole entry partner): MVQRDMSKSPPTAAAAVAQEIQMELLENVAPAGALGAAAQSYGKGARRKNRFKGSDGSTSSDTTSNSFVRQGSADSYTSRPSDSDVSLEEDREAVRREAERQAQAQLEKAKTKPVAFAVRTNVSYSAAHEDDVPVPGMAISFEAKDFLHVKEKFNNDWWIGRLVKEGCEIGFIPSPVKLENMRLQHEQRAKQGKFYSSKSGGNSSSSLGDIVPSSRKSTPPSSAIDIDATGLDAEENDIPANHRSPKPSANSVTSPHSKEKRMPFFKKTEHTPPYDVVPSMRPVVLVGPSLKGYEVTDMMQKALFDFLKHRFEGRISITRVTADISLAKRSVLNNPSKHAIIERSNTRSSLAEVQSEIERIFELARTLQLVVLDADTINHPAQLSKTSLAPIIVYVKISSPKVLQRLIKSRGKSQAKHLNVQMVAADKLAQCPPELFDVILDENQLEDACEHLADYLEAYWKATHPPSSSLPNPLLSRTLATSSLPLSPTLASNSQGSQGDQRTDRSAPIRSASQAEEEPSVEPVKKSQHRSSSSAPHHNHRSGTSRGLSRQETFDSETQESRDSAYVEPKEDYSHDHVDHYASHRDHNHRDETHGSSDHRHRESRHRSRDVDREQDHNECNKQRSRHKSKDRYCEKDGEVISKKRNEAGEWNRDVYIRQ

[5] = Plasma concentrations in calf model; assay type: in vivo; settings: after BKI-1708 5 mg/kg BID
[6] = Balb/c, mouse, plasma, iv, 1 mg/kg
[7] = Balb/c, mouse, plasma, po, 30 mg/kg

Compound `CC1(C)Cn2nc(-c3ccc4cc(OC5CC5)ccc4c3)c(C(N)=O)c2NC1O` (stereo not shown) [M2] has an EC50 (NLuc C. parvum) of 730 nM, an IC50 [1] greater than 10 µM and an EC50 [2] of 320 nM. For the same compound, the EC90 [2] was 770 nM, the EC50 ([2]; read-out: Bunch Grass Farm C. parvum Count EC50, Crypto Panel 3 Replicate 1) was 388 nM and the EC50 ([2]; read-out: Bunch Grass Farm C. parvum Count EC50, Crypto Panel 3 Replicate 2) was 247 nM. The EC90 ([2]; read-out: Bunch Grass Farm C. parvum Count EC90, Replicate 1) was 966 nM, the EC90 ([2]; read-out: Bunch Grass Farm C. parvum Count EC90, Replicate 2) was 569 nM and the CLint scaled (CYP2B6) was 0.35 mL/min/kg. For the same compound, the half-life (CYP2B6) was 159 min, the CLint scaled [3] was less than 25 mL/min/kg and the half-life [3] was greater than 120 min. The microsomal CLint [3] was less than 23.1 µL/min/mg, the “M2 AUC0-inf” value ([4]; after BKI-1708 IV 1 mg/kg) was 63 ± 9 µmol·min/L and the “M2 AUC0-inf” value ([4]; after BKI-1708 PO 1 mg/kg) was 58 ± 13 µmol·min/L. For the same compound, the CLint scaled (CYP2C9) was less than 1.78 mL/min/kg, the half-life (CYP2C9) was greater than 240 min and the C0 (Mouse PK, Balb/c; [6]) was 4.2 ± 1.3 µM. For the same compound, the Vd (Mouse PK, Balb/c; [6]) was 0.9 L/kg, the clearance (Mouse PK, Balb/c; [6]) was 6.2 mL/min/kg and the half-life (Mouse PK, Balb/c; [6]) was 106 min. It also gave a Cmax (Mouse PK, Balb/c; [7]) of 13.1 ± 1.3 µM, a Tmax (Mouse PK, Balb/c; [7]) of 1.5 h and a bioavailability (Mouse PK, Balb/c; [7]) of 43%. It also gave a half-life (Mouse PK, Balb/c; [7]) of 184 min, an AUC0-inf (Mouse PK, Balb/c; M2 IV 1 mg/kg) of 400 ± 42 µmol·min/L and an AUC0-inf (Mouse PK, Balb/c; M2 PO 30 mg/kg) of 5185 ± 1500 µmol·min/L. For the same compound, the “M2 AUC0-inf” value (Mouse PK, Balb/c; after BKI-1708 IV 3 mg/kg) was 988 ± 162 µmol·min/L, the “M2 AUC0-inf” value (Mouse PK, Balb/c; after BKI-1708 PO 15 mg/kg) was 6445 ± 654 µmol·min/L and the IC50 (Cav1.2 (L-type)) was 8.1 µM. The “average peak concentration of M2” value [5] was 7.1 ± 4.4 µM.
